Laboratory results as given in patent US9913858B2, “Prevention and treatment of toxicosis” (priority 2013, dated 2018).
Like-named read-outs stand apart in the source and are kept apart here.

Legend:
[1] = PK studies performed prior to this trial (Combs and Edwards, personal communication); cited from earlier work
[2] = Serum and cerebrospinal fluid bromide concentrations in the sheep trial; format: in vivo; details: intoxicated sheep
Method: (§1) Venous blood samples collected for biochemical analysis and haematocrit (PCV), and urine for USG, at three specific time points during the experiment for all animals: 1) on entry to the trial; 2) on date of entry to the end of trial protocol and, 3) on day of necropsy.
(§2) A full clinical examination was performed prior to euthanasia. At euthanasia, 100 I.U. heparin (Provet Riverina Pty Ltd) was injected into the jugular vein, followed shortly by Lethabarb (20 mL/40 kg LW). Immediately after euthanasia, the ventral articulation of C1 was exposed and cerebrospinal fluid (CSF) collected using a 23 g needle. The head was then removed and subjected to perfusion fixation. Briefly, the carotid arteries were exposed and a small catheter inserted and ligated to secure the perfusion lines. Two liters of 0.1% phosphate buffered saline (PBS) containing 3000 I.U of heparin/L was then slowly perfused via the ligated vessels at a pressure of 90 mm Hg using a Microgon peristaltic Pump (Microgon, Laguna Hills, Calif.). Once complete this was replaced with 4% paraformaldehyde (Sigma-Alrich) in 0.1% PBS and a further two liters allowed to perfuse slowly through the tissues of the head. Once complete, catheters were removed and the whole head placed at 4° C. overnight to complete fixation. Twenty-four hours post perfusion fixation the brain was removed from the skull and placed in 10% formal saline for storage until dissection for processing to wax sections.
Absorbance was measured with a spectrophotometer at 440 nm. […] The lower limit of quantification (LOQ) was 25 μg/mL.

[3] = tested on: cerebellum; format: in vivo; details: sheep cerebellum
Method: as §2
Concurrent to fixation perfusion of the head, a routine ovine necropsy was performed and all general tissues taken for routine histopathology. These were heart, lung, oesophagus and trachea, liver, spleen, gut (rumen, abomasum, ileocaecal junction, ileum, caecum and colon), skeletal muscle (gluteal, tricep and diaphram), kidney, pancreas, thymus, ileal and cranial lymph nodes as well as tissues from any gross abnormalities observed at time post necropsy. Other samples: subcutaneous fat, renal fat, gluteal muscle, kidney, faeces and rumen contents were collected and stored at −80° C. for future toxicological analysis. Samples for routine histopathology were fixed in 10% formal saline for a minimum of 48 hours before processing to wax using an automated wax embedder (Shandon Excelsior ES Tissue Processor, Thermo Fisher Scientific).
For histopathology, sections of brain and spinal cord included the following regions: mid cerebellar peduncle; mid and lateral sections of cerebellum; obex, occipital cortex; rostral colliculi; basal ganglia; frontal cortex; temporal cortex; thalamus; hippocampus; internal capsule; cervical, thoracic and lumbar spinal cord and pituitary. Other tissues examined for routine histopathology were kidney; lung; ileum; heart; liver including, gall bladder and bile duct; diaphragm; rumen; and colon. All sections were cut at 5 μm and stained with Haematoxylin and Eosin (H&E) using an automated staining system (Shandon Varistain Gemini ES Slide Stainer, Thermo Fisher Scientific).

[4] = tested on: lolitrem B intoxication; assay: KBr pre-treatment in rodent model of PRGT (lolitrem B injection), tremor analysis and novel arena test; format: in vivo, mice
Method: Mice were administered 2500 ppm KBr in their drinking water for 7 days prior to injection with lolitrem B (2 mg/kg IP).

[5] = tested on: sheep; assay: Clinical pathology of serum and urine; format: in vivo; details: toxin only and acute treatment groups, not outside normal ranges
Excerpt: as §1, with “necropsy. Additional venous blood samples were occasionally collected for analysis of serum bromide (see below).” for “necropsy.”
For venous sampling, blood was collected from either the right or left jugular vein as determined by convenience and sampler preference. Needle hubs and sterile, single use 21 G needles and 10 mL Vacutainer® tubes were used for collection. Two Vacutainer® tube types were used for each animal: one containing a clot activator for serum collection, the other contained ethylenediamine tetra-acetic acid (EDTA) to prevent clotting. Tubes were inverted repetitively immediately after collection prior to storage on ice for transport to the laboratory. […]
Urine samples were collected by attachment of a clean plastic bag using SuperGlue™ to the fleece on either side of the preputial opening. […] Urine specific gravity (USG) was determined using a refractometer (VQ5600 refractometer, VetQuip, Australia).
Haematological and biochemical analysis was performed by the laboratory within 60 minutes of blood collection. Haematological analytes were measured using a CellDyn 3700 Haematology System (Abbott Diagnostics, Abbott Park, Ill., USA). […]

[6] = tested on: mice; assay: Lolitrem B intoxication in mice, tremor and movement analysis; format: in vivo; details: lolitrem B 2 mg/kg IP
Method: FIG. 1. Tremor analysis of animals treated with a single dose of lolitrem B toxin. Tremor analysis: FFT frequency analysis from a mouse prior to (A) and 6 hours post lolitrem B injection 2 mg/kg i.p. (B). Low frequency (0-7 Hz) power output represents primarily movement. […] (D) Tremor-Motion power ratio at one hour post lolitrem B injection (n=4) and vehicle only control (n=4) (*p<0.05, lolitrem B (2 mg/kg i.p.) vs vehicle).
Lolitrem B was tested in mice to establish this as a suitable model for perennial ryegrass toxicosis and lolitrem B intoxication in grazing animals. […] These signs are consistent with clinical signs seen in grazing animals (See FIG. 1).

[7] = Group 3: toxin plus acute treatment
[8] = Group 4: toxin plus prophylactic treatment
[9] = Group 5: prophylactic treatment only
[10] = 2500 ppm KBr in drinking water 7 days prior to lolitrem B 2 mg/kg IP, one hour post injection
[11] = 2500 ppm KBr in drinking water 7 days, 3.5 hours post lolitrem B 2 mg/kg IP

Structure (SMILES): [Br-].[K+] [potassium bromide]
- time of peak serum bromide levels post administration [1]: 6 h
- mean serum bromide concentration ([2]; 6 hours after oral 300 mg/kg potassium bromide, n=3): 899.43 µg/mL
- final mean serum bromide concentration ([2]; 48 hours after oral 300 mg/kg potassium bromide, n=6): 804.34 µg/mL
- Incidence of Purkinje neuron vacuolation [3, 7]: 2/9
- Incidence of pyknotic cell bodies in granular layer [3, 7]: 5/9
- Incidence of spheroids, granular layer [3, 7]: 7/9
- Incidence of spheroids, molecular layer [3, 7]: 0/9
- Incidence of Purkinje neuron vacuolation [3, 8]: 1/9
- Incidence of pyknotic cell bodies in granular layer [3, 8]: 9/9
- Incidence of spheroids, granular layer [3, 8]: 6/9
- Incidence of spheroids, molecular layer [3, 8]: 3/9
- Incidence of Purkinje neuron vacuolation [3, 9]: 0/9
- Incidence of pyknotic cell bodies in granular layer [3, 9]: 2/9
- Incidence of spheroids, granular layer [3, 9]: 1/9
- Incidence of spheroids, molecular layer [3, 9]: 3/9
- peak tremor frequency [4, 10]: reduced
- tremor to movement ratio [4, 10]: reduced
- movement in novel arena test [4, 11]: increased
- time freezing in novel arena test [4, 11]: reduce

Structure (SMILES): CC(C)=C[C@H]1O[C@H]2[C@H]3O[C@@]34[C@H](CC[C@@]3(C)[C@@]4(O)CC[C@H]4Cc5c([nH]c6ccc7c(c56)C[C@@H]5[C@@H](C7=O)C(C)(C)OC5(C)C)[C@@]43C)O[C@@H]2C(C)(C)O1 [lolitrem B]
- Renal function (creatinine, urea) [5]: mildly compromised
- Incidence of Purkinje neuron vacuolation ([3]; Group 2: toxin only): 5/9
- Incidence of pyknotic cell bodies in granular layer ([3]; Group 2: toxin only): 9/9
- Incidence of spheroids, granular layer ([3]; Group 2: toxin only): 7/9
- Incidence of spheroids, molecular layer ([3]; Group 2: toxin only): 1/9
- distinctive tremor spike, frequency range [6]: 10-19 Hz
- movement [6]: decrease in movement
